{"source": "patent US6537744B1", "about": "“Use of biomarkers in saliva to evaluate the toxicity of agents and the function of tissues in both biomedical and environmental applications” (priority 1995, dated 2003)", "key": {"[1]": {"tested_on": "acetylcholinesterase in human saliva", "test": "Inhibition of acetylcholinesterase in human saliva (acetylthiocholine iodide/DTNB, 405 nm)", "assay_type": "biochemical", "details": "for % Activity / % Inhibition / Absorb. at 408 nm for 65 min. / Absorb. at 408 nm for 180 min. / nmol/min per mg: 0.6 mL saliva, 30 min preincubation at room temperature", "method": "The hydrolysis of acetylthiocholine iodide (an analog of acetylcholine iodides) by the saliva enzyme or enzymes is measured by generating the yellow 5-thio-2-nitrobenzoate with an absorbance maximum at 405 nm. The rate of change of absorbance is directly proportional to acetylcholinesterase activity. In this procedure, 0.1-1 mL of saliva (3.261 mg protein/mL) is incubated with 100 μL of acetylthiocholine iodide (0.018M) (lot #10H0653 Sigma) for 30-180 minute at 37° C. in 4.0 mL phosphate buffer (pH 7.8). After the incubation, a 0.2 mL of DTNB is added and the sample is read at 405 nm. The enzyme activity is calculated from glutathione standard curve (Table 9 and FIG. 9). Values for AChE activity in human saliva and enzyme kinetics are presented in Tables 10-14 and show in FIG. 10 through FIG. 14.\nThe AChE specific activity in saliva is about 4 nmol minute^−1 per mL of saliva. […] The percent of enzyme inhibition by organophosphate is calculated and presented in Tables 13-14 and showing in FIG. 15."}, "[2]": {"biological_target": "saliva enzymes (esterase activity)", "test": "Inhibition of saliva enzymes (esterase activity) for detection of chemicals in water", "assay_type": "biochemical, human", "method": "The presence of chemicals in milk, water, urine and other biological fluids are detected using saliva enzymes. The detection limit for the chemicals depends on the chemical potency and the number of chemicals present in the sample. The data presented here using saliva enzymes indicates a remarkably low concentration of des N-isofenphos (DNIO) in water (3 ng/mL) is detectable using the saliva enzyme method. A 50% inhibition of esterase activity is produced at 3 ng/mL DNIO. In this procedure, the sample is passed through […] solid phase absorption column (C-18) to extract and concentrate the chemicals as described by Knaak et al. (1993). The retention of the chemicals on C-18 column depends on their lipid solubility. The non-polar compounds usually have the highest retention. Then, the chemical is eluted with 1 mL of alcohol. A 0.1 mL of the elute is tested for the inhibition of saliva enzymes as described in this application. Toxicants in solid environmental samples, fruit and vegetables can be extracted with water or proper solvent. Samples of the extract are tested for enzymes inhibition. The inhibition of saliva enzyme indicates the presence of toxicant(s) in the sample and further analysis is needed to identify the specific chemical(s)."}, "[3]": {"details": "2 μg of DNIO in 4.0 mL, Test #2, 200 μL saliva, 37° C."}}}
{"smiles": "CCOP(N)(=O)Oc1ccccc1C(=O)OC(C)C", "note": "(stereo not drawn) [DNIO, des N-Isofenphos-oxon]", "values": [{"measurement": "% Activity", "setting": "[1]; 1.0 ng/mL, Test #2", "result": 68, "unit": "%"}, {"measurement": "% Inhibition", "setting": "[1]; 1.0 ng/mL, Test #2", "result": 32, "unit": "%"}, {"measurement": "Absorb. at 408 nm for 65 min.", "setting": "[1]; 1.0 ng/mL, Test #2", "result": ".17"}, {"measurement": "Absorb. at 408 nm for 180 min.", "setting": "[1]; 1.0 ng/mL, Test #2", "result": ".21"}, {"measurement": "nmol/min per mg", "setting": "[1]; 1.0 ng/mL, Test #2", "result": ".29 nmol/min per mg"}, {"measurement": "% Activity", "setting": "[1]; 2.9 ng/mL, Test #2", "result": 45, "unit": "%"}, {"measurement": "% Inhibition", "setting": "[1]; 2.9 ng/mL, Test #2", "result": 55, "unit": "%"}, {"measurement": "Absorb. at 408 nm for 65 min.", "setting": "[1]; 2.9 ng/mL, Test #2", "result": ".16"}, {"measurement": "Absorb. at 408 nm for 180 min.", "setting": "[1]; 2.9 ng/mL, Test #2", "result": ".14"}, {"measurement": "nmol/min per mg", "setting": "[1]; 2.9 ng/mL, Test #2", "result": ".19 nmol/min per mg"}, {"measurement": "% Activity", "setting": "[1]; 8.6 ng/mL, Test #2", "result": 26, "unit": "%"}, {"measurement": "% Inhibition", "setting": "[1]; 8.6 ng/mL, Test #2", "result": 74, "unit": "%"}, {"measurement": "Absorb. at 408 nm for 65 min.", "setting": "[1]; 8.6 ng/mL, Test #2", "result": ".11"}, {"measurement": "Absorb. at 408 nm for 180 min.", "setting": "[1]; 8.6 ng/mL, Test #2", "result": ".08"}, {"measurement": "nmol/min per mg", "setting": "[1]; 8.6 ng/mL, Test #2", "result": ".11 nmol/min per mg"}, {"measurement": "% Activity", "setting": "[1]; 26 ng/mL, Test #2", "result": 19, "unit": "%"}, {"measurement": "% Inhibition", "setting": "[1]; 26 ng/mL, Test #2", "result": 81, "unit": "%"}, {"measurement": "Absorb. at 408 nm for 65 min.", "setting": "[1]; 26 ng/mL, Test #2", "result": ".11"}, {"measurement": "Absorb. at 408 nm for 180 min.", "setting": "[1]; 26 ng/mL, Test #2", "result": ".06"}, {"measurement": "nmol/min per mg", "setting": "[1]; 26 ng/mL, Test #2", "result": ".08 nmol/min per mg"}, {"measurement": "% Activity", "setting": "[1]; 52 ng/mL, Test #2", "result": 13, "unit": "%"}, {"measurement": "% Inhibition", "setting": "[1]; 52 ng/mL, Test #2", "result": 87, "unit": "%"}, {"measurement": "Absorb. at 408 nm for 65 min.", "setting": "[1]; 52 ng/mL, Test #2", "result": ".09"}, {"measurement": "Absorb. at 408 nm for 180 min.", "setting": "[1]; 52 ng/mL, Test #2", "result": ".04"}, {"measurement": "nmol/min per mg", "setting": "[1]; 52 ng/mL, Test #2", "result": ".05 nmol/min per mg"}, {"measurement": "% Activity", "setting": "[1]; 78 ng/mL, Test #2", "result": 13, "unit": "%"}, {"measurement": "% Inhibition", "setting": "[1]; 78 ng/mL, Test #2", "result": 87, "unit": "%"}, {"measurement": "Absorb. at 408 nm for 65 min.", "setting": "[1]; 78 ng/mL, Test #2", "result": ".10"}, {"measurement": "Absorb. at 408 nm for 180 min.", "setting": "[1]; 78 ng/mL, Test #2", "result": ".04"}, {"measurement": "nmol/min per mg", "setting": "[1]; 78 ng/mL, Test #2", "result": ".05 nmol/min per mg"}, {"measurement": "% Activity", "setting": "[1]; 156 ng/mL, Test #2", "result": 13, "unit": "%"}, {"measurement": "% Inhibition", "setting": "[1]; 156 ng/mL, Test #2", "result": 87, "unit": "%"}, {"measurement": "Absorb. at 408 nm for 65 min.", "setting": "[1]; 156 ng/mL, Test #2", "result": ".10"}, {"measurement": "Absorb. at 408 nm for 180 min.", "setting": "[1]; 156 ng/mL, Test #2", "result": ".04"}, {"measurement": "nmol/min per mg", "setting": "[1]; 156 ng/mL, Test #2", "result": ".05 nmol/min per mg"}, {"measurement": "% Activity", "setting": "[1]; 313 ng/mL, Test #2", "result": 10, "unit": "%"}, {"measurement": "% Inhibition", "setting": "[1]; 313 ng/mL, Test #2", "result": 90, "unit": "%"}, {"measurement": "Absorb. at 408 nm for 65 min.", "setting": "[1]; 313 ng/mL, Test #2", "result": ".07"}, {"measurement": "Absorb. at 408 nm for 180 min.", "setting": "[1]; 313 ng/mL, Test #2", "result": ".03"}, {"measurement": "nmol/min per mg", "setting": "[1]; 313 ng/mL, Test #2", "result": ".04 nmol/min per mg"}, {"measurement": "% Activity", "setting": "[1]; 625 ng/mL, Test #2", "result": 10, "unit": "%"}, {"measurement": "% Inhibition", "setting": "[1]; 625 ng/mL, Test #2", "result": 90, "unit": "%"}, {"measurement": "Absorb. at 408 nm for 65 min.", "setting": "[1]; 625 ng/mL, Test #2", "result": ".07"}, {"measurement": "Absorb. at 408 nm for 180 min.", "setting": "[1]; 625 ng/mL, Test #2", "result": ".03"}, {"measurement": "nmol/min per mg", "setting": "[1]; 625 ng/mL, Test #2", "result": ".04 nmol/min per mg"}, {"measurement": "Absorb. at 405 nm for 50 min.", "setting": "[1]; [3]", "result": ".14"}, {"measurement": "Absorb. at 405 nm for 110 min.", "setting": "[1]; [3]", "result": ".10"}, {"measurement": "Absorb. at 405 nm for 165 min.", "setting": "[1]; [3]", "result": ".11"}, {"measurement": "Activity", "setting": "[1]; 2 μg of DNIO in 4.0 mL, Test #2, 200 μL saliva, 37° C. (no inhibitor: 1.14)", "result": ".22 nmol/min"}, {"measurement": "% Activity", "setting": "[1]; .04 ng/mL, Test #2", "result": 94, "unit": "%"}, {"measurement": "% Inhibition", "setting": "[1]; .04 ng/mL, Test #2", "result": 6, "unit": "%"}, {"measurement": "Absorb. at 408 nm for 65 min.", "setting": "[1]; .04 ng/mL, Test #2", "result": ".17"}, {"measurement": "Absorb. at 408 nm for 180 min.", "setting": "[1]; .04 ng/mL, Test #2", "result": ".29"}, {"measurement": "nmol/min per mg", "setting": "[1]; .04 ng/mL, Test #2", "result": ".39 nmol/min per mg"}, {"measurement": "% Activity", "setting": "[1]; .1 ng/mL, Test #2", "result": 90, "unit": "%"}, {"measurement": "% Inhibition", "setting": "[1]; .1 ng/mL, Test #2", "result": 10, "unit": "%"}, {"measurement": "Absorb. at 408 nm for 65 min.", "setting": "[1]; .1 ng/mL, Test #2", "result": ".14"}, {"measurement": "Absorb. at 408 nm for 180 min.", "setting": "[1]; .1 ng/mL, Test #2", "result": ".28"}, {"measurement": "nmol/min per mg", "setting": "[1]; .1 ng/mL, Test #2", "result": ".37 nmol/min per mg"}, {"measurement": "% Activity", "setting": "[1]; .3 ng/mL, Test #2", "result": 84, "unit": "%"}, {"measurement": "% Inhibition", "setting": "[1]; .3 ng/mL, Test #2", "result": 16, "unit": "%"}, {"measurement": "Absorb. at 408 nm for 65 min.", "setting": "[1]; .3 ng/mL, Test #2", "result": ".21"}, {"measurement": "Absorb. at 408 nm for 180 min.", "setting": "[1]; .3 ng/mL, Test #2", "result": ".26"}, {"measurement": "nmol/min per mg", "setting": "[1]; .3 ng/mL, Test #2", "result": ".34 nmol/min per mg"}, {"measurement": "Absorb. at 405 nm for 100 min.", "setting": "[1]; DNIO 4 μg in 4 mL, Test #1, 1.0 mL saliva, pH 7.8", "result": ".03"}, {"measurement": "effective concentration for 50% inhibition EC50", "setting": "[1]; acetylcholinesterase, human saliva", "result": 3, "unit": "ng/mL"}, {"measurement": "inhibition of acetylcholinesterase (in words)", "setting": "[1]; human saliva", "result": "inhibited"}, {"measurement": "concentration that produced 50% inhibition in AChE", "setting": "[1]; saliva incubated with inhibitor about 15 minutes before substrate", "result": 3, "unit": "ng per mL"}, {"measurement": "concentration producing 50% inhibition of esterase activity", "setting": "[2]", "result": 3, "unit": "ng/mL"}]}
